Data on 1 compound can be found in US7034047B2, “Triazole derivative” (Astellas Pharma, Inc., priority 2000, dated 2006).

The structures appear in SMILES notation.

For experiment [1], the system named is ECS-induced learning disability. Briefly: Electric convulsion shock (ECS)-induced learning disability (mouse passive avoidance test). The class given is in vivo, male ddY mouse. The note with it: dosed intraperitoneally; step-through latency, p<0.05. The text has this: 4. Electric Convulsion Shock (ECS)—Induced Learning Disability (Mouse Passive Avoidance Test)
With reference to the previous report (Eur J Pharmacology, 321; 273–278, 1997), assessment was done as follows. • Animal: male ddY mouse (Nippon SLC; age 5 weeks at training) was used. 16 animals were used per one group. <Experimental Procedures> Preparation of Chemical Agents A test compound for oral administration was suspended in aqueous 0.5% methyl cellulose solution, and for intraperitoneal administration was suspended in solution dissolved 0.5% of methyl cellulose solution in saline The dose administered was 10 ml per 1 kg·body weight. As a placebo of the test compound, 10 ml of aqueous 0.5% methyl cellulose solution for oral administration and 10 ml of 0.5% methyl cellulose solution in saline for intraperitoneal administration (herein referred to as vehicle) was administrated. […] Test (24 Hours after the Training) • (1) The animals were left in the experimental room for one hour or longer. • (2) After the mice were placed in the bright room and left for 30 seconds, the guillotine door was opened. • (3) The time (step-through latency) required for the mice to cross the sensor of the dark room from the opening of the guillotine door was counted. […] A significance was determined at p<0.05.

Experiment [2] concerns (+)-HA966-induced enhancement of activity. Briefly: (+)-HA966-induced enhancement of activity in mouse. The class given is in vivo, male ICR mouse. The note with it: orally given at 10 mg/kg; below 50% judged to have the effect. The text has this:
Compound 1: • 3-(biphenyl-4-yl)-4-(2-methoxyphenyl)-5-methyl-4H-1,2,4-triazole (Japanese Patent unexamined uplication No. 2000-63363; Example 33) Compound 2: • 3-(biphenyl-4-yl)-5-(furan-2-yl)-4-phenyl-4H-1,2,4-triazole (LTPBP42 CD-ROM catalog 1996 of LaboTest Co. (Freiberg, Germany)) Compound 3: • 3-(biphenyl-4-yl)-5-ethyl-4-(2-methoxyphenyl)-4H-1,2,4-triazole (Japanese Patent unexamined publication No. 2000-63363; Example 23) 2. Experimental Method of (+)-HA966—Induced Enhancement of Activity in Mouse
The method reported previously (J. Neural Transm., 97: 175–185, 1994) was used for carrying out the experiment with modification. • Animal: male ICR mouse (Nippon SLC; age 5 to 7 weeks) • Chemical drug: reserpine (Apoplon Injection of 1 mg/ml; manufactured by Daiichi Pharmaceuticals Co., Ltd.), (+)-HA966 (Proc. Nat. Acad. Sci. U.S.A., 87, 347–351, 1990), α-methyl-para-tyrosine methyl ester (Sigma,Inc.). • Experimental apparatus: Supermex (Muromachi Machine) Experimental Method • (1) Pharmaceutical drug-treated groups were defined as follows. […] The effect was determined as follows. […] It was calculated by following formula. […]

The compound `CC(C)c1nnc(-c2ccc(-c3ccccc3)cc2)n1-c1ccccc1F` [Production Example 1, 3-Biphenyl-4-yl-4-(2-fluorophenyl)-5-isopropyl-4H-1,2,4-triazole] yielded a minimum effective dose in experiment [1] of 10 mg/kg. For the same compound, the “normalized activity ((+)-HA966-induced enhancement = 100%)” value in experiment [2] was found to be 43%.
